The target of data set [1] is T1, Polθ-pol (Homo sapiens, UniProt O75417).
T1 construct: purified recombinant human Polθ-pol (comprising amino acid residues 1792–2590); made in house
T1 sequence (O75417 1792-2590): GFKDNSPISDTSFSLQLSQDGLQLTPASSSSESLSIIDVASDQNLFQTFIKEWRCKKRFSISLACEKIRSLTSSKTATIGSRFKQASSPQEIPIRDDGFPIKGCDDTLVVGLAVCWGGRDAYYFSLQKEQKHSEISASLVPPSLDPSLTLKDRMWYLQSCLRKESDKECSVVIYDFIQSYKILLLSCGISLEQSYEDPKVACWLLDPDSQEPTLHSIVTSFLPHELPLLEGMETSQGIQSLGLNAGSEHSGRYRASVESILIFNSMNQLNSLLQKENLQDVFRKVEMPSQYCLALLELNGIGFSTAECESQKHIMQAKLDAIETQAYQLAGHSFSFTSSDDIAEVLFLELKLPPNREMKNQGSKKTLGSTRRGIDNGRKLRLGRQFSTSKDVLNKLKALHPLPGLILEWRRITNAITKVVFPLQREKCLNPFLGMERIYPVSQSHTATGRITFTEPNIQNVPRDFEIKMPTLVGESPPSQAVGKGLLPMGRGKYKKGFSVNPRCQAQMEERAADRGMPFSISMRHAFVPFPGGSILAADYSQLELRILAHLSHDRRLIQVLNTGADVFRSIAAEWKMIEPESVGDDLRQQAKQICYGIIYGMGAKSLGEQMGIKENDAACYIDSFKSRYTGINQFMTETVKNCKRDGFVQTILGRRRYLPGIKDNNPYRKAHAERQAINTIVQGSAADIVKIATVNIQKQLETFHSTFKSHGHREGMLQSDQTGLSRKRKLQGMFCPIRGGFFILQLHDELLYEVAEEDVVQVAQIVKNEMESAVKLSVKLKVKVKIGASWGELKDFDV
In words: Cy5 fluorescence Polθ-pol DNA synthesis (strand displacement) IC50 assay. Format: biochemical. The conditions noted are these: Polθ-pol DNA synthesis, Cy5 fluorescence. Here is the method:
The following Cy5 fluorescence assay was used to measure the ability of compounds to inhibit Polθ-pol in vitro. The fluorescent based assay was performed as follows: 60 nM of the pre-annealed primer-template containing a 5’ Cy5 fluorophore conjugated template strand (RP486-Cy5), a downstream complementary oligo conjugated with a 3’ Iowa BlackReg Dark quencher (RP343BHQRQ) and a primer strand (RP469D) was mixed with 50 uM 2'-deoxyribonucleoside triphosphates (dNTPs), 0.1 mg/mL Bovine serum albumin (BSA), 0.01% NP-40, 10% glycerol, 1 mM dithiothreitol (DTT), 10 mM MgCl2, 25 mM TrisHCl pH 7.8 in the presence of 2.5% DMSO with or without various concentrations (7-point dilution series) of Polθ-pol small-molecule inhibitors at 37 °C in a volume of 40 μL. The reactions were initiated by the addition of 5 nM of purified recombinant human Polθ-pol (comprising amino acid residues 1792–2590). The reactions were terminated by the addition of 20 mM EDTA after 18 min, and the Cy5 fluorescence intensity was measured using a CLARIOstar (BMG Labtech) plate reader. Reactions were performed in triplicate and the % inhibition at each concentration of the respective compound of Formula I was based on the mean.

Data set [2] can be described thus: Metabolic stability in liver microsomes. Format: in vitro ADME. Conditions: read-out: t1/2 liver microsomes. In general terms: Liver microsomes are a subcellular fraction often used to study metabolism.
The nature of a further data set: Solubility (2% DMSO/PBS). Format: physicochemical. Conditions: aqueous buffer, kinetic from dmso stock.
In another data set the test system is CAPAN-1 cells. In words: Clonogenic assay. Conditions: Capan-1 cells, vehicle. Format: cell-based. The protocol:
(§1) Cells were plated on six or twelve or twenty-four well plates. In six well plate, 1000 cells/ well of BRCA2 -/-, BRCA1 -/-, PALB2 mut and 500 cells/ well of wildtype pair was plated; In twelve well plate, 600 cells/ well of BRCA2 -/-, BRCA1 -/-, PALB2 mut and 400 cells/ well of wildtype pair was plated; In twenty-four well plate, 500 cells/ well of BRCA2 -/-, BRCA1 -/-, PALB2 mut and 300 cells/ well of wildtype pair was plated. For MEFs, 300 cells per well in six-well plate were seeded. The medium was replaced every 2 days until the colonies were ready for staining in 10–12 days. For staining: Medium was removed from plates, and cells were rinsed with PBS. Fixation was carried out with—Water: Ethanol: Acetic acid (5:4:1) for 30 min followed by staining of colonies with 0.5% crystal violet in Water: Ethanol (3:2) for 2 h at room temperature. The plates were rinsed with water and left for drying overnight at room temperature. Colonies were then counted and IC50 was calculated using results from 3 or more independent experiments. Response curves are shown as mean colony formation +/- S.E.M.
(§2) Data are expressed as mean ± SEM from at least 3 independent experiments with triplicates for each condition unless stated otherwise. When conducting comparison between two groups, two-tailed unpaired t-test was used. Significance was assumed at p < 0.05. Asterisks in the figures indicate significance, ^∗p < 0.05, ^∗∗p < 0.01, ^∗∗∗p < 0.001. Combenefit® software version 2.021 was used to perform synergy analyses for drug combinations between RTx-161 and PARPi. GraphPad Prism 9 software was used to calculate IC50.

Another data set deals with VC8 cells. Nature of the data set: Clonogenic assay. Format: cell-based, Chinese hamster. The conditions noted are these: VC8 cells, vehicle. Here is the method:
as §1, §2

Data set [3] can be described thus: Colony survival, ola with or without RTX-161 (source data sheet Fig. 2 b; cell line not given). Format: cell-based. Conditions: vehicle.
Data set [4] in a line: Colony survival, ola with or without RTX-161 (source data sheet Fig. 2 c; cell line not given). Format: cell-based. The conditions noted are these: ola 0.125 um, RTX-161 0 uM.
Another data set addresses Fl-Polθ (UniProt O75417 1-2590). Nature of the data set: EcoRI endonuclease protection with unlabeled DNA trap; RTx-152, ddCTP; i+1 complex fully resistant; Endonuclease protection buffer not in the material; crystals: 0.24 M Na citrate, 18% PEG 3350, 0.1 M Bis Tris propane pH 7.5, with 1 mM MgCl2, 1 mM ddGTP, 20 mM spermine in the complex mix. Conditions: protein: recombinant; label: 32P (5'); 5' overhang 12 nt on template; 14 bp duplex.

In data set [5] the target is T2, Polθ-pol (human, UniProt O75417 1792-2590).
T2 sequence: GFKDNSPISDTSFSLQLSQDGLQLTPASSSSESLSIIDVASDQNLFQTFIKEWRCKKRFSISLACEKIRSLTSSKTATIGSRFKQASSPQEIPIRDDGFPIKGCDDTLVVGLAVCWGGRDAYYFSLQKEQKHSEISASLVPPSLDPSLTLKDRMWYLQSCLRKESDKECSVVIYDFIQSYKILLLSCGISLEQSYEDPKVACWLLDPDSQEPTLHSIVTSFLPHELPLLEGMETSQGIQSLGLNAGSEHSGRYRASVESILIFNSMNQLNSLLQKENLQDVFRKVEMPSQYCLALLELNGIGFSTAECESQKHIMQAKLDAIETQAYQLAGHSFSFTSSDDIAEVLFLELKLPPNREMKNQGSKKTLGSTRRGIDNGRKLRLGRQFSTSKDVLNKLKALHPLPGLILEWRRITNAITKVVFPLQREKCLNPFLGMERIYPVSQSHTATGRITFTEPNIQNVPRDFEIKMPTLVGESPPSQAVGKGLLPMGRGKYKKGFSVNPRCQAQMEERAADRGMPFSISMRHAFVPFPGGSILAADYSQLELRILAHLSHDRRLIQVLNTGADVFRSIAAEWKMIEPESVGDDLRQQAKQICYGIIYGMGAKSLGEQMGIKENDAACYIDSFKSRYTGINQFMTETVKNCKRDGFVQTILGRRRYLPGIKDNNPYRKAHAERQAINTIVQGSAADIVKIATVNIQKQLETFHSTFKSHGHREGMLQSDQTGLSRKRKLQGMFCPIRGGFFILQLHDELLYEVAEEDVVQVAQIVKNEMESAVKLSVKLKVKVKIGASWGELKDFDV
In words: EcoRI endonuclease protection with unlabeled DNA trap; RTx-161, ddCTP; cleavage suppressed >10 min; Endonuclease protection buffer not in the material; crystals: 0.24 M Na citrate, 18% PEG 3350, 0.1 M Bis Tris propane pH 7.5, with 1 mM MgCl2, 1 mM ddGTP, 20 mM spermine in the complex mix. Conditions: protein: recombinant; label: 32P (5'); 5' overhang 12 nt on template; 14 bp duplex.

In data set [6] the target is T3, PolθΔL (Polθ-pol, five loops replaced) (UniProt O75417 …, internal_change).
T3 sequence: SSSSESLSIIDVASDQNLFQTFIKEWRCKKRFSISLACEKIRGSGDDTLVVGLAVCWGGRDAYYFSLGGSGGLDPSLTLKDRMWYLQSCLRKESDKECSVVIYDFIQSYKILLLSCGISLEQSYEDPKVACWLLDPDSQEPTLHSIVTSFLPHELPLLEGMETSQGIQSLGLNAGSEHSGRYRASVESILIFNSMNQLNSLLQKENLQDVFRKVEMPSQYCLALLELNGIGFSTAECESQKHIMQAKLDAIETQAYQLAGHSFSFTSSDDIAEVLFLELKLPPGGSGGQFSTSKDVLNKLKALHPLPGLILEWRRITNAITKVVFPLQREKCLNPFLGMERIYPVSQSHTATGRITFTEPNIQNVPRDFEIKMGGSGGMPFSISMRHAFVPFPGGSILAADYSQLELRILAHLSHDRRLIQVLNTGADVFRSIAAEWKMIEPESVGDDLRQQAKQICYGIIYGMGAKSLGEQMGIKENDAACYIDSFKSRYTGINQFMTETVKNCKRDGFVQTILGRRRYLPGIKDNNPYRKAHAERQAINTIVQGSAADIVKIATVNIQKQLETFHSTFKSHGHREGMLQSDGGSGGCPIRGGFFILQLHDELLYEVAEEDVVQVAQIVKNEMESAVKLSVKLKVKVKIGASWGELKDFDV
Nature of the data set: X-ray crystallography, 3.24 Å; RTx-152, ddGTP, Mg2+; closed conformation; Endonuclease protection buffer not in the material; crystals: 0.24 M Na citrate, 18% PEG 3350, 0.1 M Bis Tris propane pH 7.5, with 1 mM MgCl2, 1 mM ddGTP, 20 mM spermine in the complex mix. Conditions: protein: recombinant; tags: 6xHis-SUMO removed with PreScission protease; 5' overhang 10 nt on template; 14 bp duplex.

As usually defined, the IC50 is the midpoint of a concentration-inhibition curve. The solubility is the concentration that dissolves in the medium under given conditions. Read a low solubility as a poorly soluble substance.

Converted amounts (≈) assume the structure as drawn. “And” between values parts separate entries of the source, which are not always exact repeats. Identical values can stand only once.

The molecule `CN(C(=O)Oc1c(Cl)cc(Cl)c2cccnc12)c1ccccc1` [MC280003] had an IC50 on Polθ-pol [1] of 160 nM. Moreover, the half-life in data set [2] came to 1.5 min. The amount in solution in the data set “Solubility (2% DMSO/PBS)” (solubility) came to 21 µM (≈ 7.29 µg/mL).
On to `O=C(c1cc(Cc2n[nH]c(=O)c3ccccc23)ccc1F)N1CCN(C(=O)C2CC2)CC1` [ola], for which the percent suvival with CAPAN-1 cells (ola 0.041 micro M, experiment block 1 (c0-c9)) is 35.7622%; in the data set on CAPAN-1 cells (ola 0.041 micro M, experiment block 2 (c10-c19)), 95.0051%; in the data set with CAPAN-1 cells (ola 0.041 micro M, experiment block 3 (c20-c29)) it was 99.322%; in the data set on CAPAN-1 cells (ola 0.123 micro M, experiment block 1 (c0-c9)), 20.5479%; with CAPAN-1 cells (ola 0.123 micro M, experiment block 2 (c10-c19)), 86.264%; in the data set with CAPAN-1 cells (ola 0.123 micro M, experiment block 3 (c20-c29)), 101.808%. Besides, the percent suvival in the data set on CAPAN-1 cells (ola 0.37 micro M, experiment block 1 (c0-c9)) stood at 15.0785%; in the data set with CAPAN-1 cells (ola 0.37 micro M, experiment block 2 (c10-c19)), 58.3758%; with CAPAN-1 cells (ola 0.37 micro M, experiment block 3 (c20-c29)), 61.807%; in the data set on CAPAN-1 cells (ola 1.11 micro M, experiment block 1 (c0-c9)), 13.2577%; with CAPAN-1 cells (ola 1.11 micro M, experiment block 2 (c10-c19)) it was 54.2134%; in the data set on CAPAN-1 cells (ola 1.11 micro M, experiment block 3 (c20-c29)), 43.0496%. Besides, the percent suvival in the data set on VC8 cells (ola 1.875 nano M) was 82.1918% and 93.3333% and 61.7978%; in the data set with VC8 cells (ola 30.00 nano M) it was 0%; in data set [3] (ola 7.9 nano M), 85.0909% and 53.0303% and 63.9535%; in data set [3] (ola 11.8 nano M), 61.0909%; in [3] (ola 17.70 nano M) it was 49.2424% and 44.186% and 51.6364%; in data set [3] (ola 26.60 nano M) it was 49.0909%. Moreover, the percent suvival was 44.7273% and 28.7879% and 31.9767% in [3] (ola 40.00 nano M); 38.5455% in [3] (ola 60.00 nano M); 15.1515% and 16.8605% and 24.3636% in data set [3] (ola 90.00 nano M); 53.6122% and 69.9422% and 40.4494% in data set [4].

B1: LM3-EcoRI/LM4-EcoRI primer-template (dsDNA)
DNA 1: CGGCGAATTCGCAG
DNA 2: AGTAAGAGAACGCTGCGAATTCGCCG
On to B1, for which the binding result with Fl-Polθ and in the data set with Polθ-pol [5] was “binds” in each case.

B2: crystallization primer-template (dsDNA)
DNA 1: CGACGTCGCAGCGC
DNA 2: GCGAGACTCCGCGCTGCGACGTCG
For the molecule B2, in data set [6], the binding result is reported as “binds”.

The values above are taken from PMC10997755, “Discovery of a small-molecule inhibitor that traps Polθ on DNA and synergizes with PARP inhibitors” (Nature Communications, 2024).
